Data: US20120245180A1, “COMBINATION” (GlaxoSmithKline LLC, priority 2009, published 2012)
Where two headings read alike, the source gives them in different places.

How the values were obtained:
Format in all cases: cell-based
[1] = system: C3A; assay: Cell growth inhibition assay, hepatocellular carcinoma cell line (Cell Titer Glo); settings: Homo sapiens, 72 h, 3 days
Procedure: (§1) Human tumor cell lines from hepatocellular carcinoma (HCC), C3A, Hep3B, HepG2, PLC/PRF/5, SNU182, SNU387, SNU398, SNU423, SNU449 and SNU475 were purchased from the ATCC. Human breast tumor cell lines, HCC2218, HCC1419, BT-474, SK-BR-3, UACC893, JIMT-1, MDA-MB-361, HCC202, MDA-MB-175-VII, HCC1569, HCC1937, HCC38, MDA-MB-157, HCC1954, HCC1500, BT483, KPL-1, SUM225 and ZR-75-1 from ATCC, SUM52 and SUM190 from Asterand, PLC (Detroit Mich.), were cultured in RPMI 1640 medium containing 10% FBS; SKBR3-W13 and BT-474-J4 cultured in RPMI 1640 medium containing 10% FBS and 1 μM lapatinib; KPL4 line was kindly provided by Dr Junichi Kurebayashi (Kawasaki Medical School, Okayama, Japan) and cultured in DMEM containing 5% FBS. JIMT-1 from European Collection of Cell Cultures (UK), is a line derived from a patient clinically resistant to trastuzumab (Herceptin®). SK-BR-3-W13 is a single cell clone isolated by a cloning cylinder after a single treatment of SK-BR-3 cells with 0.5 μM lapatinib. BT-474-J4 is a single cell clone derived from a pool of BT-474 cells that were selected to grow in lapatinib to a concentration of 3 μM.
(§2) Cells were seeded in a 96-well tissue culture plate (NUNC 136102) of RPMI medium containing 10% FBS at 500-2,000 cells per well. Approximately 24 hours after plating, cells were exposed to ten, two-fold or three-fold serial dilutions of either Compound A or B or the combination of the two agents at a 2:1 molar ratio (Compounds A and B respectively). In some cases, cells were grown in RPMI media containing 10% FBS and in the presence or absence of 2 ng/mL hepatocyte growth factor (HGF). Cells were incubated in the presence of compounds for 3 days. ATP levels were determined by adding Cell Titer Glo® (Promega) according to the manufacturer's protocol. Briefly, Cell Titer Glo® was added to each plate, incubated for 20 minutes then luminescent signal was read on the SpectraMax L plate reader with a 0.5 sec integration time. All assays were run at least in duplicate.
(§3) Inhibition of cell growth was estimated after treatment with compound or combination of compounds for three days and comparing the signal to cells treated with vehicle (DMSO). Cell growth was calculated relative to vehicle (DMSO) treated control wells. Concentration of compound that inhibits 50% of control cell growth (IC50) was back-interpolated when y=50% of DMSO treated control wells using nonlinear regression with the equation: […]
(§4) where A is the minimum response (ymin), B is the maximum response (Ymax), C is the inflection point of the curve (EC50) and D is the Hill coefficient.
(§5) Combination effects on potency were evaluated using the Combination Index (CI) and Excess Over Highest Single Agent (EHOSA) methods.

[2] = system: Hep3B; assay: as above; settings: Homo sapiens, 72 h, 3 days
Procedure: as §1, §2, §3, §4, §5

[3] = system: HepG2; assay: as above; settings: Homo sapiens, HepG2, 72 h, 3 days
Procedure: as §1, §2, §3, §4, §5

[4] = system: PLC/RF/5; assay: as above; settings: Homo sapiens, 72 h, 3 days
Procedure: as §1, §2, §3, §4, §5

[5] = system: SNU182; assay: as above; settings: Homo sapiens, SNU-182, 72 h, 3 days
Procedure: as §1, §2, §3, §4, §5

[6] = system: SNU398; assay: as above; settings: Homo sapiens, SNU-398, 72 h, 3 days
Procedure: as §1, §2, §3, §4, §5

[7] = system: SNU423; assay: as above; settings: Homo sapiens, SNU-423, 72 h, 3 days
Procedure: as §1, §2, §3, §4, §5

[8] = system: SNU475; assay: as above; settings: Homo sapiens, SNU-475, 72 h, 3 days
Procedure: as §1, §2, §3, §4, §5

[9] = system: SK-BR-3-W13; assay: Cell growth inhibition assay, breast tumor cell line (Cell Titer Glo); settings: Homo sapiens, 72 h; SK-BR-3-W13 (HER2+), 3 days; read-out: Single agent IC50, Compound A
Procedure: as §1, §2, §3, §4, §5
DNA Copy number data on the HER2 gene was collected for all breast cancer cell lines using the Affymetrix 500K chip (Affymetrix Inc, Sunnyvale, Calif.). Briefly DNA was extracted from each line, digested with the restriction enzyme Nsp or Sty, ligated to an adaptor and amplified by PCR. After PCR, DNA was fragmented, labeled, denatured, and hybridized to the Affymetrix 500K chip. Upon completion of hybridization, each assay was washed and stained. Image data were acquired. Similarly collected data from a panel 10 diploid non-tumorigenic lymphoblastic cell lines were used to calculate DNA copy number. All ‘SNP Chip’ images ('CEL files'), were extracted, read and normalized using the dChip software package (Lin et al. 2004. Bioinformatics. 20:1233-40). SNP-wise ‘copy-number ratios’ (log2 scale) were calculated for all cancer cell lines using the lymphoblastic reference panel and analyzed by circular binary segmentation to reduce noise (Olshen et al. 2004. Biostatistics. 5:557-72). Cell lines with log2 ratios of HER2>0.65 were considered HER2+.

[10] = system: Human breast tumor cell lines; assay: Cell growth inhibition, panel of breast tumor cell lines
Procedure: Human tumor cell lines from hepatocellular carcinoma (HCC), C3A, Hep3B, HepG2, PLC/PRF/5, SNU182, SNU387, SNU398, SNU423, SNU449 and SNU475 were purchased from the ATCC. […]
Cells were seeded in a 96-well tissue culture plate (NUNC 136102) of RPMI medium containing 10% FBS at 500-2,000 cells per well. […] ATP levels were determined by adding Cell Titer Glo® (Promega) according to the manufacturer's protocol. Briefly, Cell Titer Glo® was added to each plate, incubated for 20 minutes then luminescent signal was read on the SpectraMax L plate reader with a 0.5 sec integration time. […]
Inhibition of cell growth was estimated after treatment with compound or combination of compounds for three days and comparing the signal to cells treated with vehicle (DMSO). Cell growth was calculated relative to vehicle (DMSO) treated control wells. […]
as §5
DNA Copy number data on the HER2 gene was collected for all breast cancer cell lines using the Affymetrix 500K chip (Affymetrix Inc, Sunnyvale, Calif.). […] All ‘SNP Chip’ images ('CEL files'), were extracted, read and normalized using the dChip software package (Lin et al. 2004. Bioinformatics. 20:1233-40). […]

[11] = HGF + (2 ng/ml), read-out: Single agent IC50, Compound A
[12] = HGF −, read-out: Single agent IC50, Compound A
[13] = HGF + (2 ng/ml), read-out: Single agent IC50, Compound B
[14] = HGF −, read-out: Single agent IC50, Compound B

Compound `CC(=O)Nc1cccc(-n2c(=O)n(C3CC3)c(=O)c3c(Nc4ccc(I)cc4F)n(C)c(=O)c(C)c32)c1` [Compound A, N-{3-[3-cyclopropyl-5-[(2-fluoro-4-iodophenyl)amino]-6,8-dimethyl-2,4,7-trioxo-3,4,6,7-tetrahydropyrido[4,3-d]pyrimidin-1(2H)-yl]phenyl}acetamide] has an IC50 [1, 11] of 36 ± 11 nM, an IC50 [1, 12] of 10 ± 3 nM and an IC50 [2, 11] of 37 ± 8 nM. For the same compound, the IC50 [2, 12] was 26 ± 8 nM, the IC50 ([3]; HepG2, HGF + (2 ng/ml), read-out: Single agent IC50, Compound A) was 3 ± 1 nM and the IC50 ([3]; HepG2, HGF −, read-out: Single agent IC50, Compound A) was 1 nM. It also gave an IC50 ([4]; PLC/RF/5, HGF + (2 ng/ml), read-out: Single agent IC50, Compound A) of 2870 ± 1560 nM, an IC50 ([4]; PLC/RF/5, HGF −, read-out: Single agent IC50, Compound A) of 1600 ± 509 nM and an IC50 ([5]; SNU182, HGF + (2 ng/ml), read-out: Single agent IC50, Compound A) of 1280 ± 1220 nM. For the same compound, the IC50 ([5]; SNU182, HGF −, read-out: Single agent IC50, Compound A) was 1760 ± 224 nM, the IC50 ([6]; SNU398, HGF + (2 ng/ml), read-out: Single agent IC50, Compound A) was greater than 5000 nM and the IC50 ([6]; SNU398, HGF −, read-out: Single agent IC50, Compound A) was greater than 5000 nM. For the same compound, the IC50 ([7]; SNU423, HGF + (2 ng/ml), read-out: Single agent IC50, Compound A) was 577 ± 569 nM, the IC50 ([7]; SNU423, HGF −, read-out: Single agent IC50, Compound A) was 218 ± 130 nM and the IC50 ([8]; SNU475, HGF + (2 ng/ml), read-out: Single agent IC50, Compound A) was greater than 5000 nM. For the same compound, the IC50 ([8]; SNU475, HGF −, read-out: Single agent IC50, Compound A) was greater than 5000 nM, the IC50 [9] was greater than 1000 nM and the IC50 ([10]; SUM52 and MDA-MB-17511) was no more than 99 nM.

`COc1ncc(-c2ccc3nccc(-c4ccnnc4)c3c2)cc1NS(=O)(=O)c1ccc(F)cc1F` [Compound B, 2,4-difluoro-N-{2-(methyloxy)-5-[4-(4-pyridazinyl)-6-quinolinyl]-3-pyridinyl}benzenesulfonamide] showed an IC50 [1, 13] of 13 ± 1 nM, an IC50 [1, 14] of 13 ± 1 nM and an IC50 [2, 13] of 57 ± 20 nM. It also gave an IC50 [2, 14] of 28 ± 2 nM, an IC50 ([3]; HepG2, HGF + (2 ng/ml), read-out: Single agent IC50, Compound B) of 9 ± 5 nM and an IC50 ([3]; HepG2, HGF −, read-out: Single agent IC50, Compound B) of 9 ± 8 nM. It also gave an IC50 ([4]; PLC/RF/5, HGF + (2 ng/ml), read-out: Single agent IC50, Compound B) of 15 ± 1 nM, an IC50 ([4]; PLC/RF/5, HGF −, read-out: Single agent IC50, Compound B) of 18 ± 12 nM and an IC50 ([5]; SNU182, HGF + (2 ng/ml), read-out: Single agent IC50, Compound B) of 17 ± 4 nM. The IC50 ([5]; SNU182, HGF −, read-out: Single agent IC50, Compound B) was 17 ± 1 nM, the IC50 ([6]; SNU398, HGF + (2 ng/ml), read-out: Single agent IC50, Compound B) was 83 ± 2 nM and the IC50 ([6]; SNU398, HGF −, read-out: Single agent IC50, Compound B) was 98 ± 21 nM. For the same compound, the IC50 ([7]; SNU423, HGF + (2 ng/ml), read-out: Single agent IC50, Compound B) was 21 ± 7 nM, the IC50 ([7]; SNU423, HGF −, read-out: Single agent IC50, Compound B) was 23 ± 16 nM and the IC50 ([8]; SNU475, HGF + (2 ng/ml), read-out: Single agent IC50, Compound B) was 39 ± 17 nM. The IC50 ([8]; SNU475, HGF −, read-out: Single agent IC50, Compound B) was 50 ± 19 nM and the IC50 ([10]; all lines except HCC1937, SK-Br-3-W13 and MDA-MB-157) was less than 100 nM.
